From patent publication US9447044B2, “Thioaryl derivatives as GPR120 agonists” (LG LIFE SCIENCES LTD., priority 2012, dated 2016)

What follows are compounds tested against T1, hGPR120 (Homo sapiens, UniProt Q5NUL3) (assay: Measurement of activity of GPR120 agonist (cell-based assay), calcium fluorescence). Details: CHO-K1 cells expressing Ga16 and hGPR120; Calcium 5 dye fluorescence; activity class.
T1 construct: expressed in transfected cells; host or cells: CHO-K1
T1 sequence (Q5NUL3 1-361): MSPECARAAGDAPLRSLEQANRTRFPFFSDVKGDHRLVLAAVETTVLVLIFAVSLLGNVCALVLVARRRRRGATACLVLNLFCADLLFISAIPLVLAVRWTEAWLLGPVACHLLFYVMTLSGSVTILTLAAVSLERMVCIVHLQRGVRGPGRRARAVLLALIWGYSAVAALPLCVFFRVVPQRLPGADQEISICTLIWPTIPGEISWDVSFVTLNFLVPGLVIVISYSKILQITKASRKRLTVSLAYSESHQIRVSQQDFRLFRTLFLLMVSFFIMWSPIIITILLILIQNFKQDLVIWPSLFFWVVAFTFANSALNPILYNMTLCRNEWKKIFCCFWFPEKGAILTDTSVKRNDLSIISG
In short: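 CHO-K1 cells co-expressing Gα16 and hGPR120, loaded with Calcium 5 dye for 1 h at 37° C, received serially diluted agonists (final 0.5% DMSO). Fluorescence (Ex 485/Em 525 nm) was expressed as relative percent over 0.1% DMSO-only wells; activity binned as A >20 μM, B 20–2 μM, C 2–0.2 μM, D <0.2 μM.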

Compound	EC50
COc1cc(CCC(=O)O)ccc1OCc1cccc(SC2CCCC2)n1 [Example 73, 3-[4-(6-cyclopentylsulfanyl-pyridin-2-ylmethoxy)-3-methoxy-phenyl]-propionic acid]	200 to 2000 nM
O=C(O)CC1COc2cc(OCc3cccnc3SC3CCCC3)ccc21 (centres unmarked) [Example 74, [6-(2-cyclopentylsulfanyl-pyridin-3-ylmethoxy)-2,3-dihydro-benzofuran-3-yl]-acetic acid]	< 200 nM
O=C(O)C1CC1c1cc(F)c(OCc2cccc(SC3CCC3)n2)c(F)c1 (centres unmarked) [Example 75, 2-[4-(6-cyclobutylsulfanyl-pyridin-2-ylmethoxy)-3,5-difluoro-phenyl]-cyclopropane carboxylic acid]	< 200 nM
COc1ccc(COc2c(F)cc(CCC(=O)O)cc2F)c(SC2CCCC2)n1 [Example 76, 3-[4-(2-cyclopentylsulfanyl-6-methoxy-pyridin-3-ylmethoxy)-3,5-difluoro-phenyl]-propionic acid]	200 to 2000 nM
CC(C)Sc1ncccc1COc1ccc(CCC(=O)O)cc1Cl [Example 77, 3-[3-chloro-4-(2-isopropylsulfanyl-pyridin-3-ylmethoxy)-phenyl]-propionic acid]	< 200 nM
O=C(O)CCc1ccc(OCc2cccnc2SC2CCCC2)c(Cl)c1 [Example 78, 3-[3-chloro-4-(2-cyclopentylsulfanyl-pyridin-3-ylmethoxy)-phenyl]-propionic acid]	< 200 nM
Cc1c(CCC(=O)O)ccc(OCc2cccnc2SC2CCCC2)c1C [Example 80, 3-[4-(2-cyclopentylsulfanyl-pyridin-3-ylmethoxy)-2,3-dimethyl-phenyl]-propionic acid]	< 200 nM
O=C(O)C[C@@H]1COc2cc(OCc3cccnc3SC3CCCC3)ccc21 [Example 81, [(S)-6-(2-cyclopentylsulfanyl-pyridin-3-ylmethoxy)-2,3-dihydro-benzofuran-3-yl]-acetic acid]	< 200 nM
O=C(O)C[C@H]1COc2cc(OCc3cccnc3SC3CCCC3)ccc21 [Example 82, [(R)-6-(2-cyclopentylsulfanyl-pyridin-3-ylmethoxy)-2,3-dihydro-benzofuran-3-yl]-acetic acid]	< 200 nM
O=C(O)C1CC1c1ccc(OCc2cccnc2SCC2CC2)c(F)c1 (centres unmarked) [Example 84, 2-[4-(2-cyclopropylmethylsulfanyl-pyridin-3-ylmethoxy)-3-fluoro-phenyl]-cyclopropane carboxylic acid]	< 200 nM
O=C(O)C1CC1c1ccc(OCc2cccc(SC3CCCC3)n2)c(F)c1 (centres unmarked) [Example 85, 2-[4-(6-cyclopentylsulfanyl-pyridin-2-ylmethoxy)-3-fluoro-phenyl]-cyclopropane carboxylic acid]	< 200 nM
O=C(O)C1CC1c1ccc(OCc2cccc(SC3CCC3)n2)c(F)c1 (centres unmarked) [Example 86, 2-[4-(6-cyclobutylsulfanyl-pyridin-2-ylmethoxy)-3-fluoro-phenyl]-cyclopropane carboxylic acid]	< 200 nM
CC(C)Sc1ncccc1COc1ccc(C2CC2C(=O)O)c(Cl)c1 (centres unmarked) [Example 89, 2-[2-chloro-4-(2-isopropylsulfanyl-pyridin-3-ylmethoxy)-phenyl]-cyclopropane carboxylic acid]	200 to 2000 nM
O=C(O)C1CC1c1ccc(OCc2cccc(SC3CCC3)n2)cc1Cl (centres unmarked) [Example 90]	< 200 nM
CC(Cc1ccc(OCc2cccnc2SCC2CC2)c(Cl)c1)C(=O)O (centres unmarked) [Example 91, 3-[3-chloro-4-(2-cyclopropylmethylsulfanyl-pyridin-3-ylmethoxy)-phenyl]-2-methyl-propionic acid]	< 200 nM
CCCSc1ncccc1COc1ccc(CC(C)C(=O)O)cc1Cl (centres unmarked) [Example 92, 3-[3-chloro-4-(2-propylsulfanyl-pyridin-3-ylmethoxy)-phenyl]-2-methyl-propionic acid]	< 200 nM
CC(C)Sc1cccc(COc2ccc(CC(C)C(=O)O)cc2Cl)n1 (centres unmarked) [Example 93, 3-[3-chloro-4-(6-isopropylsulfanyl-pyridin-2-ylmethoxy)-phenyl]-2-methyl-propionic acid]	< 200 nM
CC(Cc1ccc(OCc2cccc(SC3CCCC3)n2)c(Cl)c1)C(=O)O (centres unmarked) [Example 94, 3-[3-chloro-4-(6-cyclopentylsulfanyl-pyridin-2-ylmethoxy)-phenyl]-2-methyl-propionic acid]	< 200 nM
CC(Cc1ccc(OCc2cccc(SC3CCC3)n2)c(Cl)c1)C(=O)O (centres unmarked) [Example 96, 3-[3-chloro-4-(6-cyclobutylsulfanyl-pyridin-2-ylmethoxy)-phenyl]-2-methyl-propionic acid]	< 200 nM

Next, values leading:

EC50	Compound
< 200 nM	CC(C)Sc1ncccc1COc1ccc(C2CC2C(=O)O)cc1Cl (centres unmarked) [Example 97, 2-[3-chloro-4-(2-isopropylsulfanyl-pyridin-3-ylmethoxy)-phenyl]-cyclopropane carboxylic acid]
< 200 nM	O=C(O)C1CC1c1ccc(OCc2cccc(SCC3CC3)n2)c(Cl)c1 (centres unmarked) [Example 98, 2-[3-chloro-4-(6-cyclopropylmethylsulfanyl-pyridin-2-ylmethoxy)-phenyl]-cyclopropane carboxylic acid]
< 200 nM	CC(C)Sc1cccc(COc2ccc(C3CC3C(=O)O)cc2Cl)n1 (centres unmarked) [Example 99, 2-[3-chloro-4-(6-isopropylsulfanyl-pyridin-2-ylmethoxy)-phenyl]-cyclopropane carboxylic acid]
< 200 nM	O=C(O)C1CC1c1ccc(OCc2cccc(SC3CCCC3)n2)c(Cl)c1 (centres unmarked) [Example 100, 2-[3-chloro-4-(6-cyclopentylsulfanyl-pyridin-2-ylmethoxy)-phenyl]-cyclopropane carboxylic acid]
< 200 nM	O=C(O)C1CC1c1ccc(OCc2cccnc2SC2CCCC2)c(Cl)c1 (centres unmarked) [Example 101, 2-[3-chloro-4-(2-cyclopentylsulfanyl-pyridin-3-ylmethoxy)-phenyl]-cyclopropane carboxylic acid]
< 200 nM	O=C(O)C1CC1c1ccc(OCc2cccnc2SC2CCC2)c(Cl)c1 (centres unmarked) [Example 102, 2-[3-chloro-4-(2-cyclobutylsulfanyl-pyridin-3-ylmethoxy)-phenyl]-cyclopropane carboxylic acid]
< 200 nM	O=C(O)C1CC1c1ccc(OCc2cccc(SC3CCC3)n2)c(Cl)c1 (centres unmarked) [Example 103, 2-[3-chloro-4-(6-cyclobutylsulfanyl-pyridin-2-ylmethoxy)-phenyl]-cyclopropane carboxylic acid]
200 to 2000 nM	O=C(O)C1CC1c1ccc(OCc2cccc(SC3CCCC3)n2)cc1Cl (centres unmarked) [Example 104]
2000 to 20000 nM	Cc1c(OCc2cccnc2SC(C)C)ccc(C2CC2C(=O)O)c1C (centres unmarked) [Example 105, 2-[4-(2-isopropylsulfanyl-pyridin-3-ylmethoxy)-2,3-dimethyl-phenyl]-cyclopropane carboxylic acid]
> 20000 nM	Cc1c(OCc2cccnc2SCC2CC2)ccc(C2CC2C(=O)O)c1C (centres unmarked) [Example 106, 2-[4-(2-cyclopropylmethylsulfanyl-pyridin-3-ylmethoxy)-2,3-dimethyl-phenyl]-cyclopropane carboxylic acid]
< 200 nM	O=C(O)C1CC1c1ccc(OCc2cccnc2SCC2CC2)c(Cl)c1 (centres unmarked) [Example 107, 2-[3-chloro-4-(2-cyclopropylmethylsulfanyl-pyridin-3-ylmethoxy)-phenyl]-cyclopropane carboxylic acid]
< 200 nM	CCCSc1ncccc1COc1ccc(C2CC2C(=O)O)cc1Cl (centres unmarked) [Example 108, 2-[3-chloro-4-(2-propylsulfanyl-pyridin-3-ylmethoxy)-phenyl]-cyclopropane carboxylic acid]
200 to 2000 nM	COc1ccc(COc2ccc(C3CC3C(=O)O)cc2Cl)c(SC(C)C)n1 (centres unmarked) [Example 109, 2-[3-chloro-4-(2-isopropylsulfanyl-6-methoxy-pyridin-3-ylmethoxy)-phenyl]-cyclopropane carboxylic acid]
200 to 2000 nM	O=C(O)C1CC1Cc1cc(F)c(OCc2cccc(SC3CCCC3)n2)c(F)c1 (centres unmarked) [Example 110, 2-[4-(6-cyclopentylsulfanyl-pyridin-2-ylmethoxy)-3,5-difluoro-benzyl]-cyclopropane carboxylic acid]

Same assay, conditions: CHO-K1 cells expressing Ga16 and hGPR120; Calcium 5 dye fluorescence; numeric value

EC50	Compound
33 nM	Cc1c(CCC(=O)O)ccc(OCc2cccnc2SC(C)C)c1C [Example 79, 3-[4-(2-isopropylsulfanyl-pyridin-3-ylmethoxy)-2,3-dimethyl-phenyl]-propionic acid]
110 nM	CC(C)Sc1ncccc1COc1ccc(C2CC2C(=O)O)cc1F (centres unmarked) [Example 83, 2-[3-fluoro-4-(2-isopropylsulfanyl-pyridin-3-ylmethoxy)-phenyl]-cyclopropane carboxylic acid]
64000 nM	O=C(O)C1CC1c1ccc(OCc2cccnc2SC2CCCC2)c(F)c1 (centres unmarked) [Example 87, 2-[4-(2-cyclopentylsulfanyl-pyridin-3-ylmethoxy)-3-fluoro-phenyl]-cyclopropane carboxylic acid]
57000 nM	O=C(O)C1CC1c1ccc(OCc2cccnc2SC2CCC2)c(F)c1 (centres unmarked) [Example 88, 2-[4-(2-cyclobutylsulfanyl-pyridin-3-ylmethoxy)-3-fluoro-phenyl]-cyclopropane carboxylic acid]
88 nM	CC(Cc1ccc(OCc2cccnc2SC2CCC2)c(Cl)c1)C(=O)O (centres unmarked) [Example 95, 3-[3-chloro-4-(2-cyclobutylsulfanyl-pyridin-3-ylmethoxy)-phenyl]-2-methyl-propionic acid]
